Data reported in patent US20240409534A1, “CRYSTAL FORM OF METHYLPYRAZOLE-SUBSTITUTED PYRIDOIMIDAZOLE COMPOUND AND PREPARATION METHOD THEREFOR” (priority 2021, published 2024).
pIC50: −log10 of the molar value.

Tests used:
[1] = Stability test (high temperature, high humidity, light, accelerated, long-term); format: physicochemical
Text: For tests under high temperature, high humidity and light conditions, samples were put into an open clean weighing bottle, spread into a thin layer of 5 mm or less, and 3 samples (1.1 g/sample) were weighed in parallel at each condition time point. The prepared samples were placed under each condition, and sampled for analysis at each time point.
For accelerated stability and long-term stability tests, samples were packed into a double-layer pharmaceutical low-density polyethylene bag. Each layer of the pharmaceutical low-density polyethylene bag was sealed with buckles, and then the double-layer low-density polyethylene bag was heat-sealed in an aluminum foil bag. 6 samples (1.1 g/sample) were weighed in parallel at each condition time point. The prepared samples were placed under each condition, and sampled for analysis at each time point.

[2] = Hygroscopicity study by dynamic vapor sorption (DVS); format: physicochemical; conditions: 25° C. and 80% RH
Description: Instrument model: SMS Intrinsic Dynamic Vapor Sorption Analyzer
Test conditions: Taking a sample (10 to 30 mg) and placing in a DVS sample dish for testing.
Detailed DVS parameters are as follows: • Temperature: 25° C. • Equilibration: dm/dt=0.002%/min (minimum: 10 min, maximum: 180 min) RH range: 0% RH to 95% RH to 0% RH • RH gradient: 10% (90% RH to 0% RH to 90% RH) • 5% (95% RH to 90% RH and 90% RH to 95% RH)

[3] = tested on: NCI-H1581 cells with high expression of FGFR1; test: Cell proliferation inhibition, CellTiter-Glo, NCI-H1581; format: cell-based; conditions: Homo sapiens, 72 h, NCI-H1581, cultured for 3 days
Text: (§1) The compounds of the present disclosure can target and inhibit FGFR and VEGFR pathways, and inhibit tumor cell growth by inhibiting VEGF/VEGFR and FGF/FGFR signaling pathways. In this experiment, human non-small cell lung cancer cells NCI-H1581 with high expression of FGFR1, gastric cancer cells SNU-16 with high expression of FGFR2, and human bladder cancer cells RT112/84 with high expression of FGFR3 were selected. In this experiment, the inhibitory effect of compounds on cell proliferation was investigated by detecting the effect of the compounds of the present disclosure on the cell viability in vitro in the tumor cell lines NCI-H1581, SNU-16 and RT-112/84.
(§2) Regular passage, and cells in logarithmic growth phase were taken for plating.
(§3) • (1) Cells were stained with trypan blue and viable cells were counted. • (2) The cell concentration was adjusted to an appropriate concentration.
(§4) • (3) 90 μL of cell suspension per well was added to a culture plate, and cell-free culture solution was added to the blank control well. • (4) The plate was cultured overnight in a 37° C., 5% CO2 incubator with 100% relative humidity.
(§5) • (1) Preparation of 10× compound working solution: 78 μL of cell culture medium was added to a V-bottom 96-well plate, and 2 μL of compound was pipetted from a 400× compound storage plate and added to the cell culture medium of the 96-well plate. […]

[4] = tested on: bladder cancer cells RT112/84 with high expression of FGFR3; test: Cell proliferation inhibition, CellTiter-Glo, RT-112/84; format: cell-based; conditions: Homo sapiens, RT112/84, 72 h, RT-112/84, cultured for 3 days
Text: as §1, §2, §3, §4, §5

[5] = Accelerated stability test (40° C./relative humidity: 75%), Day 0
[6] = Accelerated stability test (40° C./relative humidity: 75%), Month 1
[7] = Accelerated stability test (40° C./relative humidity: 75%), Month 2
[8] = Accelerated stability test (40° C./relative humidity: 75%), Month 3
[9] = Accelerated stability test (40° C./relative humidity: 75%), Month 6
[10] = High humidity (25° C./relative humidity: 92.5%, open), Day 5
[11] = High humidity (25° C./relative humidity: 92.5%, open), Day 10
[12] = High humidity (25° C./relative humidity: 92.5%, open), Day 30
[13] = High temperature (60° C., open), Day 5
[14] = High temperature (60° C., open), Day 10
[15] = High temperature (60° C., open), Day 30
[16] = Light (Total illumination: 1.2 × 10^6 Lux · hr/NUV: 200 w · hr/m^2, open), Day 5
[17] = Light (Total illumination: 1.2 × 10^6 Lux · hr/NUV: 200 w · hr/m^2, open), Day 10
[18] = Long-term stability test (25° C./relative humidity: 60%), Day 0
[19] = Long-term stability test (25° C./relative humidity: 60%), Month 3
[20] = Long-term stability test (25° C./relative humidity: 60%), Month 6
[21] = Long-term stability test (25° C./relative humidity: 60%), Month 9

SMILES: CS(=O)(=O)O.Cn1cc(-c2ccn3c(-c4cc(NS(C)(=O)=O)nc(-c5ccc(F)cc5F)c4)cnc3c2)cn1
- Content [1, 5]: 97.9%
- Crystal form (XRPD) [1, 5]: Crystal form A
- Total impurities [1, 5]: 1.2%
- Content [1, 6]: 98.0%
- Crystal form (XRPD) [1, 6]: Crystal form A
- Total impurities [1, 6]: 1.3%
- Content [1, 7]: 97.6%
- Crystal form (XRPD) [1, 7]: Crystal form A
- Total impurities [1, 7]: 1.2%
- Content [1, 8]: 98.0%
- Crystal form (XRPD) [1, 8]: Crystal form A
- Total impurities [1, 8]: 1.2%
- Content [1, 9]: 98.5%
- Crystal form (XRPD) [1, 9]: Crystal form A
- Total impurities [1, 9]: 1.2%
- Content ([1]; Day 0): 97.9%
- Crystal form (XRPD) ([1]; Day 0): Crystal form A
- Total impurities ([1]; Day 0): 1.2%
- Content [1, 10]: 96.8%
- Crystal form (XRPD) [1, 10]: Crystal form A
- Total impurities [1, 10]: 1.2%
- Content [1, 11]: 98.8%
- Crystal form (XRPD) [1, 11]: Crystal form A
- Total impurities [1, 11]: 1.2%
- Content [1, 12]: 98.0%
- Crystal form (XRPD) [1, 12]: Crystal form A
- Total impurities [1, 12]: 1.3%
- Content [1, 13]: 97.0%
- Crystal form (XRPD) [1, 13]: Crystal form A
- Total impurities [1, 13]: 1.3%
- Content [1, 14]: 98.5%
- Crystal form (XRPD) [1, 14]: Crystal form A
- Total impurities [1, 14]: 1.1%
- Content [1, 15]: 98.2%
- Crystal form (XRPD) [1, 15]: Crystal form A
- Total impurities [1, 15]: 1.2%
- Content [1, 16]: 98.4%
- Crystal form (XRPD) [1, 16]: Crystal form A
- Total impurities [1, 16]: 1.2%
- Content [1, 17]: 97.7%
- Crystal form (XRPD) [1, 17]: Crystal form A
- Total impurities [1, 17]: 1.1%
- Content [1, 18]: 97.9%
- Crystal form (XRPD) [1, 18]: Crystal form A
- Total impurities [1, 18]: 1.2%
- Content [1, 19]: 98.3%
- Crystal form (XRPD) [1, 19]: Crystal form A
- Total impurities [1, 19]: 1.2%
- Content [1, 20]: 98.6%
- Crystal form (XRPD) [1, 20]: Crystal form A
- Total impurities [1, 20]: 1.2%
- Content [1, 21]: 97.6%
- Crystal form (XRPD) [1, 21]: Crystal form A
- Total impurities [1, 21]: 1.2%
- hygroscopic weight gain ΔW [2]: 1.708%
- pIC50 [3]: 6.93
- pIC50 [4]: 6.78
